Assay results published in article PMC12024540, “Peptide-Based Regulation of TNF-α-Mediated Cytotoxicity” (Biomolecules, 2025).
Like-named read-outs stand apart in the source and are kept apart here. Where no end group is shown, it is not given here.

Legend:
TNF-α = settings: peptide from T7 phage display library; cited from earlier work
Description: Peptide-based TNF-α inhibition has garnered attention in recent years, as studies have shown that peptides may help treat inflammatory diseases. In a study conducted in 2023, a nine amino acid-long peptide targeting TNF-α was discovered using a T7 phage display library. […] OB1 also attenuated TNF-α-induced cell death based on morphological examination (Figure 8). […] Thus, C87 is used as a positive control in many TNF-α inhibitor studies.

rhTNF-α = rhTNF-α (Homo sapiens, UniProt P01375); assay: Microscale thermophoresis (MST) binding to labeled rhTNF-α; settings: labeled rhTNF-α 20 nM, PBS, mean ± SD of three replicates
Procedure: MST was performed using a Monolith NT.115 Pico instrument (NanoTemper Technologies, Munich, Germany). In this technique, thermophoresis applied by irradiation with an infrared (IR) laser diode disrupts a ligand-target binding interaction that has equilibrated. The concentration of fluorescent molecules can be altered by the direct movement of molecules within a temperature gradient. The effect on the fluorescence signal is monitored continuously over time.
Experiments were performed using the Monolith Protein Labeling Kit RED-NHS 2nd Generation and Monolith NT.115 Premium Capillaries at Pico-RED 80% excitation power and medium MST power with thermophoresis. Mixtures of labeled molecules and functional peptides or TNFR1 were prepared in PBS. Labeled molecules were maintained at 20 nM for the peptide binding experiments, and the ligand concentrations varied according to the molecule with 16 serial dilutions. The peptide-labeled molecule mixture was loaded into the glass capillaries after 20 min incubation in the dark. Results were analyzed using M.O. Affinity Analysis v.2.3 software.

L929 cells [1] = assay: MTT cytotoxicity of peptides on L929 cells; type: cell-based, mouse; settings: at 10,000 nM (10 μM)
Procedure: (§1) The TNF-α neutralizing activity of designed peptides and adalimumab molecules was compared with cell-based bioactivity assays. L929 cells were cultured in DMEM supplemented with 10% FBS and 1% P/S in a humidified 5% CO2 incubator at 37 °C [43].
Cytotoxicity of peptides was determined using the 3-(4,5-dimethylthiazol-2-yl)-2,5 diphenyltetrazolium bromide (MTT) cell proliferation assay. Briefly, 3 × 10^4 cells in 100 μL were seeded into 96-well tissue culture plates and incubated at 37 °C in a 5% CO2 incubator for 24 ± 2 h. Peptide concentrations were diluted from 1 pM to 10 μM and measured in triplicate. The following kit protocol and absorbance were measured at 550 nm and 690 nm using a microplate reader (Gen5 Synergy HT BioTek, Winooski, VT, USA).

[2] = system: TNF-α-induced L929 cell death; assay: TNF-α neutralization test (TNF-α-induced cytotoxicity, MTT) on L929 cells; type: cell-based, mouse
Procedure: as §1
(§2) In the TNF-α neutralization test, 3 × 10^4 cells in 100 μL were seeded into 96-well tissue culture plates and incubated at 37 °C in a 5% CO2 incubator for 24 ± 2 h. After incubation, cells were stimulated with 2 μg/mL actinomycin D and 1 ng/mL TNF-α in the presence of diluted concentrations of adalimumab and functional peptides ranging from 1 pM to 10 μM for 24 ± 2 h. […] TNF-α neutralizing activity was also examined by microscopy in a 24-well plate. Both the cytotoxicity effect and neutralizing activity of the OB1 peptide were visually examined by fluorescence microscopy (Zeiss AxioVert A, Oberkochen, Germany). OB1 and adalimumab were administered at a concentration of 1 μM with 1 ng/mL TNF-α.

L929 cells [3] = type: cell-based, mouse; settings: 1 μM with TNF-α (1 ng/mL) and actinomycin D, microscopy
Procedure: as §2

Chain of rhTNF-α (P01375 77-233 limits assumed): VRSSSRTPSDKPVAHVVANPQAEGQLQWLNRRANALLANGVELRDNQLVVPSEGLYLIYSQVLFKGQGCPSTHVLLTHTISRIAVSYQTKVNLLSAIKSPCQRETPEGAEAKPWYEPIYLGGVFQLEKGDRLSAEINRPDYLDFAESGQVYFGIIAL

Substance | Kd (rhTNF-α) [nM] | survival rate in TNF-α neutralization ([2]; 2 h, 10000 nM) [%] | other results
ACHAWAPTR [pep2, nine amino acid-long peptide targeting TNF-α from a T7 phage display library] |  |  | Kd (TNF-α): 5140 nM
KRWSRYFWVDMTGTR-NH2 [OB8] | 3890 ± 4540 |  | cytotoxicity (in words) (L929 cells [1]): non-toxic
Adalimumab | 0.0211 ± 0.0036 |  | IC50 [2]: 3.85 nM; survival rate in TNF-α neutralization ([2]; L929 cells, 10,000 nM, 1 ng/mL TNF-α and actinomycin D): ~80%; cell survival by morphology with TNF-α and actinomycin D (L929 cells [3]): enhanced cell survival
KGGGSGGGSGGGSRKEMGQV-NH2 [OB2] | 46.7 | ~80 | 
KGGGSGGGSHIHDDLLRYYGW-NH2 [OB1] | 300 | ~80 | IC50 ([2]; mouse): 4.6 nM
